Numbers after ± are expanded uncertainties.
Assay: molar heat capacity at constant pressure
Details: 101.33 kPa, Crystal, Small (less than 1 g) adiabatic calorimetry

C[C@@H](O)[C@H](N)C(=O)O [L-threonine]
Details | molar heat capacity at constant pressure [J/K/mol]
145.26 K | 88.8 ± 0.67
146.21 K | 89.13 ± 0.67
147.15 K | 89.63 ± 0.67
148.1 K | 90.13 ± 0.67
149.05 K | 90.63 ± 0.67
150 K | 90.96 ± 0.67
150.93 K | 91.38 ± 0.67
151.88 K | 91.87 ± 0.67
152.83 K | 92.21 ± 0.67
153.78 K | 92.79 ± 0.67
154.71 K | 93.21 ± 0.67
155.66 K | 93.7 ± 0.67
156.61 K | 94.2 ± 0.67
157.55 K | 94.54 ± 0.67
158.5 K | 94.87 ± 0.67
159.44 K | 95.37 ± 0.67
160 K | 95.62 ± 0.67
160.38 K | 95.7 ± 0.75
161.33 K | 96.12 ± 0.75
162.27 K | 96.7 ± 0.75
163.21 K | 97.03 ± 0.75
164.16 K | 97.53 ± 0.75
165.1 K | 98.03 ± 0.75
166.02 K | 98.36 ± 0.75
166.96 K | 98.78 ± 0.75
167.9 K | 99.11 ± 0.75
168.84 K | 99.69 ± 0.75
169.78 K | 100.02 ± 0.75
170 K | 100.19 ± 0.83
170.72 K | 100.44 ± 0.75
171.66 K | 100.85 ± 0.75
172.6 K | 101.27 ± 0.75
173.54 K | 101.6 ± 0.75
174.48 K | 102.1 ± 0.75
175.42 K | 102.6 ± 0.75
176.34 K | 103.02 ± 0.75
177.28 K | 103.43 ± 0.75
178.21 K | 103.76 ± 0.75
179.15 K | 104.35 ± 0.75
180 K | 104.6 ± 0.83
180.08 K | 104.6 ± 0.75
180.99 K | 104.93 ± 0.75
181.93 K | 105.34 ± 0.75
182.86 K | 105.84 ± 0.75
183.79 K | 106.34 ± 0.75
184.73 K | 106.67 ± 0.75
185.66 K | 107.09 ± 0.75
186.59 K | 107.51 ± 0.75
187.52 K | 107.92 ± 0.75
188.45 K | 108.25 ± 0.83
189.38 K | 108.75 ± 0.83
190 K | 109 ± 0.83
190.32 K | 109.09 ± 0.83
191.25 K | 109.5 ± 0.83
192.18 K | 110 ± 0.83
193.1 K | 110.25 ± 0.83
194.03 K | 110.67 ± 0.83
194.96 K | 111.08 ± 0.83
195.86 K | 111.5 ± 0.83
196.79 K | 111.83 ± 0.83
197.72 K | 112.33 ± 0.83
198.65 K | 112.66 ± 0.83
199.57 K | 112.99 ± 0.83
200 K | 113.33 ± 0.83
200.62 K | 113.49 ± 0.83
201.78 K | 114.07 ± 0.83
202.93 K | 114.57 ± 0.83
204.09 K | 115.07 ± 0.83
205.25 K | 115.65 ± 0.83
206.41 K | 116.15 ± 0.83
207.57 K | 116.57 ± 0.83
208.73 K | 117.07 ± 0.83
209.9 K | 117.57 ± 0.83
210 K | 117.57 ± 0.83
211.06 K | 118.07 ± 0.83
212.23 K | 118.65 ± 0.83
213.35 K | 119.06 ± 0.83
214.52 K | 119.56 ± 0.83
215.69 K | 119.98 ± 0.83
216.86 K | 120.48 ± 0.83
218.03 K | 120.89 ± 0.83
219.2 K | 121.47 ± 0.91
220 K | 121.81 ± 0.83
220.37 K | 121.97 ± 0.91
221.54 K | 122.56 ± 0.91
222.71 K | 122.97 ± 0.91
223.89 K | 123.47 ± 0.91
225.06 K | 123.97 ± 0.91
226.24 K | 124.55 ± 0.91
227.41 K | 125.05 ± 0.91
228.59 K | 125.47 ± 0.91
229.77 K | 125.96 ± 0.91
230 K | 126.13 ± 1
230.95 K | 126.38 ± 0.91
232.1 K | 126.96 ± 0.91
233.28 K | 127.54 ± 0.91
234.46 K | 128.29 ± 0.91
235.64 K | 128.62 ± 0.91
236.82 K | 129.04 ± 0.91
238 K | 129.62 ± 0.91
239.18 K | 130.04 ± 0.91
240 K | 130.37 ± 1
240.37 K | 130.54 ± 0.91
241.55 K | 131.04 ± 0.91
242.74 K | 131.45 ± 0.91
243.92 K | 132.03 ± 0.91
245.11 K | 132.53 ± 0.91
246.3 K | 132.95 ± 0.91
247.49 K | 133.61 ± 1
248.68 K | 134.03 ± 1
249.87 K | 134.53 ± 1
250 K | 134.69 ± 1
251.05 K | 134.94 ± 1
252.25 K | 135.36 ± 1
253.44 K | 135.86 ± 1
254.64 K | 136.69 ± 1
255.83 K | 137.11 ± 1
257.02 K | 137.94 ± 1
258.22 K | 138.44 ± 1
259.42 K | 138.77 ± 1
260 K | 138.93 ± 1
260.62 K | 139.27 ± 1
261.82 K | 139.85 ± 1
263.02 K | 140.35 ± 1
264.22 K | 140.68 ± 1
265.42 K | 141.43 ± 1
266.63 K | 142.01 ± 1
267.84 K | 142.43 ± 1
269.05 K | 142.93 ± 1
270 K | 143.26 ± 1
270.25 K | 143.34 ± 1
271.46 K | 144.09 ± 1
272.67 K | 144.42 ± 1
273.88 K | 145.17 ± 1
275.09 K | 145.5 ± 1
276.3 K | 145.92 ± 1
277.52 K | 146.42 ± 1.1
278.73 K | 146.83 ± 1.1
279.95 K | 147.5 ± 1.1
280 K | 147.58 ± 1
281.17 K | 147.91 ± 1.1
282.39 K | 148.5 ± 1.1
283.61 K | 149 ± 1.1
284.84 K | 149.49 ± 1.1
286.06 K | 149.99 ± 1.1
287.29 K | 150.57 ± 1.1
288.48 K | 151.16 ± 1.1
289.71 K | 151.74 ± 1.1
290 K | 151.82 ± 1
290.94 K | 152.24 ± 1.1
292.17 K | 152.65 ± 1.1
293.4 K | 153.57 ± 1.1
294.63 K | 153.65 ± 1.1
295.86 K | 154.4 ± 1.1
297.1 K | 154.82 ± 1.1
298.15 K | 155.31 ± 1.2
298.33 K | 155.4 ± 1.1
299.57 K | 155.98 ± 1.1
300 K | 155.98 ± 1.2
301.28 K | 156.31 ± 1.1
303.43 K | 157.14 ± 1.1
305.56 K | 157.97 ± 1.1
307.69 K | 158.56 ± 1.1
309.8 K | 159.55 ± 1.2
310 K | 159.55 ± 1.2
311.9 K | 160.3 ± 1.2
313.99 K | 161.13 ± 1.2
316.05 K | 161.88 ± 1.2
318.12 K | 162.8 ± 1.2
320 K | 163.46 ± 1.2
320.16 K | 163.55 ± 1.2
322.2 K | 164.21 ± 1.2
324.22 K | 164.88 ± 1.2
326.23 K | 165.71 ± 1.2
328.22 K | 166.29 ± 1.2
330 K | 166.87 ± 1.2
330.18 K | 166.95 ± 1.2
332.14 K | 167.54 ± 1.2
333.96 K | 168.2 ± 1.2
335.89 K | 168.95 ± 1.2
337.81 K | 169.7 ± 1.2
339.72 K | 170.36 ± 1.2
340 K | 170.61 ± 1.2
341.6 K | 171.28 ± 1.2
343.43 K | 172.36 ± 1.2
345.28 K | 172.77 ± 1.2
347.12 K | 173.69 ± 1.2
348.93 K | 174.44 ± 1.2
350 K | 174.94 ± 1.2
350.73 K | 175.19 ± 1.2
352.45 K | 175.85 ± 1.2
354.22 K | 176.68 ± 1.2
355.96 K | 177.35 ± 1.2
357.68 K | 177.93 ± 1.2
359.39 K | 178.59 ± 1.2
360 K | 178.76 ± 1.2
361.08 K | 179.26 ± 1.2
362.43 K | 179.59 ± 1.2
364.01 K | 180.17 ± 1.2
365.64 K | 180.84 ± 1.2
367.26 K | 181.17 ± 1.2
368.85 K | 181.84 ± 1.2
370 K | 182.25 ± 1.3
370.42 K | 182.5 ± 1.2
371.97 K | 182.83 ± 1.2

— the NIST ThermoML archive (doi:10.1016/j.jct.2017.09.022)
